Series [1] has as its target T1, COX-1 (Homo sapiens, UniProt P23219).
T1 construct: endogenous in cells
Nature of the series: Assay for the COX-1 inhibitory activity using U-937 (PGE2 inhibition). It is filed as cell-based. As to conditions: test compound 1 μM; U-937 human lymphoma cells; PGE2 vs DMSO control; read-out: Cyclooxygenase (COX) Inhibition (%) COX-1 (1 μM). How it is done:
The collected cells were diluted with HBSS (x1, Hank's balanced salt solution) to a concentration of 1×10^6 cells/ml. 1 ml of the dilute cell solution was placed into each well of 12-well plates. 5 μl of 1 μM solution of a test compound in DMSO and 5 μl of DMSO as a control were added to the wells. The wells were incubated in CO2 incubator at 37° C. for 15 minutes. Separately, 10 mM stock solution of arachidonic acid in ethanol was diluted ten times in ethanol to prepare 1 mM solution of arachidonic acid. Arachidonic acid acts as a substrate. 10 μl of the 1 mM solution of arachidonic acid was added to each well and incubated at CO2 incubator at 37° C. for 30 minutes. The cell solution of each well was placed in a centrifuge test tube and centrifuged at 10,000 rpm at 4° C. for 5 minutes. The concentration of PGE2 in the collected cells and the supernatant was quantified by means of a monoclonal kit (Cayman Chemicals). The percentages of PGE2 inhibition in a group of the test compound-treated cells in relation to a group of the DMSO-treated cells were calculated. Based on the calculated values, the COX-1 inhibitory activities were evaluated.
(§1) The percentages of the COX inhibition were calculated according to the following equation:
(§2) % Inhibition=(concentration of PGE2 in test compound-untreated sample−concentration of PGE2 in test compound-treated sample) / (concentration of PGE2 in test compound-untreated sample)×100

Series [2] concerns the target T2, COX-2 (Mus musculus, UniProt Q05769).
T2 construct: endogenous in cells
T2 sequence (Q05769 18-604): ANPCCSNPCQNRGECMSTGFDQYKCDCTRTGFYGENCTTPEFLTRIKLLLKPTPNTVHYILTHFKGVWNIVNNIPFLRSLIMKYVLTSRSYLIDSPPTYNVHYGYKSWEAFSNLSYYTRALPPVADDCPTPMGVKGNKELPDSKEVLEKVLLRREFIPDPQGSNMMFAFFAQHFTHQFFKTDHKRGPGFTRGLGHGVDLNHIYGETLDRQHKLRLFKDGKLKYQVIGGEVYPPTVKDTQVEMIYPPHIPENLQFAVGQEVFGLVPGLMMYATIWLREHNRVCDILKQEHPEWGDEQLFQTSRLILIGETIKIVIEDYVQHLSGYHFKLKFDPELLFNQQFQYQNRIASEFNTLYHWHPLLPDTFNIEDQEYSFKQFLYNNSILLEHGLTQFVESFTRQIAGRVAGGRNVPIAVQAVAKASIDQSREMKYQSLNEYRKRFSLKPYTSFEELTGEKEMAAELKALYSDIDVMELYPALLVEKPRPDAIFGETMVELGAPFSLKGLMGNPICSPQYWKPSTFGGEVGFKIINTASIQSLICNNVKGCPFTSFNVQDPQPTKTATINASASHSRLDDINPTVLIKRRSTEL
Nature of the series: Assay for the COX-2 inhibitory activity using RAW 264.7 cell line (PGE2 inhibition). As to conditions: RAW264.7, test compound 10 nM, RAW 264.7 cells, interferon + LPS induced, read-out: Cyclooxygenase (COX) Inhibition (%) COX-2 (10 nM). Format: cell-based. On the procedure:
Each well was treated with 250 μM of aspirin and incubated at 37° C. for 2 hours. After the culture media were replaced with new culture media, the new culture media were treated with a test compound (10 nM) and incubated for 30 minutes. Then, each well was treated with interferon ? (100 units/ml) and lipopolysaccharide (LPS, 100 ng/ml) and incubated for 18 hours. The culture media were transferred to other test tubes. The concentration of PGE2 was quantified by means of the EIA kit (Cayman Chemicals).
as §1, §2

The structures appear in SMILES notation.

The term inhibition denotes the share of the control response that was lost under treatment. For orientation: melting point means the temperature, or range, at which the solid turns liquid.

T1 sequence (P23219 24-599): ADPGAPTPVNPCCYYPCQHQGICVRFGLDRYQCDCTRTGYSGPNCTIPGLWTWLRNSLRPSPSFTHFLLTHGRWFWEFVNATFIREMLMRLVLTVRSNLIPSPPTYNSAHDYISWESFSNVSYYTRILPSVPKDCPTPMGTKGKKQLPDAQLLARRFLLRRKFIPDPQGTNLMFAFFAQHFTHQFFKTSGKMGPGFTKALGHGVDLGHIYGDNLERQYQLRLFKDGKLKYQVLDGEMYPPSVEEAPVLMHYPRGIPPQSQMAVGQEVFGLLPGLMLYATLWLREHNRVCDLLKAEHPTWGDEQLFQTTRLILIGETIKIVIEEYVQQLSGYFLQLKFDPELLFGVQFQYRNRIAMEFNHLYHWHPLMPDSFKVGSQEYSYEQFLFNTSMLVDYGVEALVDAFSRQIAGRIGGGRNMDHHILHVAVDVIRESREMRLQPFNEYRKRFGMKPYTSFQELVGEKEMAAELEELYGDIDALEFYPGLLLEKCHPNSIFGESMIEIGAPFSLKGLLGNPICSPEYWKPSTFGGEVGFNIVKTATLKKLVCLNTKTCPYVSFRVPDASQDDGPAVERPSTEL

As to `COc1ccc(-c2c(-c3ccc(S(C)(=O)=O)cc3)n(C)n(C)c2=O)cc1` [Example 5, 5-(4-methanesulfonylphenyl)-4-(4-methoxyphenyl)-1,2-dimethyl-1,2-dihydropyrazole-3-one], the melting point lay in the range of 245 to 247 °C. The inhibition at 1 µM in series [1] came to 10.5%. In addition, in series [2], the inhibition at 0.01 µM worked out at 22.5%.

For `Cn1c(-c2ccc(S(C)(=O)=O)cc2)c(-c2ccc(Cl)c(Cl)c2)c(=O)n1C` [Example 8, 4-(3,4-dichlorophenyl)-5-(4-methanesulfonylphenyl)-1,2-dimethyl-1,2-dihydropyrazole-3-one], the melting point was 240 to 242 °C.

`Cc1onc(-c2ccccc2)c1-c1ccc(S(N)(=O)=O)cc1` [Reference (Valdecoxib), Valdecoxib, reference compound]: the inhibition at 1 µM in series [1] is 28.8%.

`Cn1c(-c2ccc(S(C)(=O)=O)cc2)c(-c2ccccc2)c(=O)n1C` [Example 6, 5-(4-methanesulfonylphenyl)-1,2-dimethyl-4-phenyl-1,2-dihydropyrazole-3-one] registered a melting point of 210 to 212 °C. Also, the inhibition at 1 µM in series [1] was 22.6%. Also, the inhibition at 0.01 µM in series [2] was 13.2%.

Compound `Cc1ccc(-c2c(-c3ccc(S(C)(=O)=O)cc3)n(C)n(C)c2=O)cc1` [Example 7, 5-(4-methanesulfonylphenyl)-1,2-dimethyl-4-(4-methylphenyl)-1,2-dihydropyrazole-3-one] had a melting point of 247 to 249 °C. Besides, in series [1], the inhibition at 1 µM is 36.5%. Moreover, the inhibition at 0.01 µM in series [2] stood at 12.5%.

Values taken from patent publication US6689805B2, “Pyrazole-3-one derivative, method for preparing the same, and pharmaceutical composition containing the same” (CJ Corp., priority 2002, dated 2004).
